Usually IC50 stands for the concentration that gives 50% inhibition.

Data on two compounds can be found in patent US5246932A, “Heterocyclic compounds” (Imperial Chemical Industries PLC, priority 1991, dated 1993).

Assay [1] has as its system vasodilation response during twitch contraction of skeletal muscle. Description: Anaesthetised cat exercise hyperaemia test. To be noted: 10 mg.kg^-1. Format: in vivo. As for the experimental part: f) Anaesthetised cat exercise hyperaemia test
This test involves assessment of the effect of a test compound to antagonise the vasodilation response which occurs during twitch contraction of skeletal muscle. The vasodilation is mediated partly by the release of endogenous adenosine from the contracting skeletal muscle.
Cats (2.4-3.6 kg) are anaesthetised with sodium pentobarbitone (50 mg.kg^-1 ip). The following blood vessels are catheterized: left jugular vein (for infusion of anaesthetic, at approximately […] as a 6 mg.ml^-1 solution in isotonic saline), right external jugular vein (for administration of drugs and test compounds), right common carotid artery (for measurement of systemic arterial blood pressure and pulse rate) and right brachial artery (for withdrawal of blood).
Blood flow to the left hind limb is measured with an electromagnetic flow probe around the left external iliac artery. The whole of the left hind limb is made to contract at 3 Hz for 20 minutes duration by stimulating the sciatic and femoral nerves. Active tension produced by the extensor digitorum longus and peroneous longus muscles is measured isometrically with a force transducer. Exercise is repeated twice within the same animal, in either the absence or presence of the test compound. Test compounds are assessed for their ability to reduce the vasodilatation during skeletal muscle contraction.

The target in assay [2] is adenosine receptor known as A2. Description: Guinea-pig Aortic Constriction Test. Format: biochemical. The note with it: antagonism of adenosine relaxation of phenylephrine-constricted guinea-pig aortic ring. The source says:
(b) Guinea-pig Aortic Constriction Test
This test has been described by Collis et al. (British J. Pharmacology, 1989, 97, 1274-1278) and involves the assessment of the ability of a test compound to antagonise the attenuatory effect of adenosine on phenylephrine induced constriction of a guinea-pig aortic ring preparation, an effect mediated via the adenosine receptor known as A2.
The aortic ring preparation is obtained as follows:- Sections (3-5 mm) of guinea pig thoracic aorta (from Dunkin Hartley strain, 250-400 g males) are mounted in organ baths containing oxygenated Krebs solution (95% O2 : 5% CO2) at 37° C. [The nucleoside transport inhibitor, dipyridamole (10 μM) is present in the Krebs solution]. The isometric tension development is recorded and the tissue placed under a resting tension of 1 g and allowed to equilibrate for 1 hour. […] Adenosine is next added cumulatively (10^-7 M to 10^-3 M) and the evoked relaxation is measured. […]
Test compounds are assessed by plotting the percentage relaxation observed against the logarithm of the adenosine concentration, competitive adenosine antagonism producing a parallel shift in the standard adenosine concentration/relaxation (dose response) curve. […] The pA2 value, which is an estimate of the concentration of antagonist to give a dose ratio of 2, may also be calculated using a standard computation technique.

Assay [3] deals with T1, adenosine receptor known as A1 (Cavia porcellus, UniProt P47745).
T1 construct: Atrial pairs are obtained from guinea-pigs (Dunkin Hartley strain); from tissue; host or cells: guinea-pig spontaneously beating atrial pairs (Dunkin Hartley)
T1 sequence (P47745 1-326): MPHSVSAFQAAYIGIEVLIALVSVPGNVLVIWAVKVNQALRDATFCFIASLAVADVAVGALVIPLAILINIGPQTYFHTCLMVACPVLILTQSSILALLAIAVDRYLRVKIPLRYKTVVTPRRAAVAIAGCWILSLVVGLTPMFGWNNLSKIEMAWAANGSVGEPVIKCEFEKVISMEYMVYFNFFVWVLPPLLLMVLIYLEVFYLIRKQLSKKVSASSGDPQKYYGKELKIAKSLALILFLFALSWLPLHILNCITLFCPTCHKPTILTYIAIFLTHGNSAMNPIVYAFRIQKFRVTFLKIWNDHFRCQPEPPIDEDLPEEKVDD
Put plainly: Guinea-pig Atrial Bradycardic Test. It is filed as biochemical. The note with it: antagonism of 2-chloroadenosine bradycardia in beating guinea-pig atrial pair; read-out: pA2 (converted). As for the experimental part:
(c) Guinea-pig Atrial Bradycardic Test
The atrial pair preparation may be obtained as follows: Atrial pairs are obtained from guinea-pigs (Dunkin Hartley strain, 250-400 g males) and mounted in organ baths containing oxygenated Krebs buffer solution (95% O2; 5% CO2) at 37° C. The spontaneously beating atria are then placed under a resting tension of 1 g and allowed to equilibrate for 50 minutes with continuous overflow. Overflow is then stopped and adenosine deaminase (1 Unit/ml) added to prevent the accumulation of endogenously produced adenosine. After equilibration for 15 minutes, a cumulative dose response curve to the adenosine mimetic, 2-chloroadenosine(10^-8 M to 10^-4 M) is administered to produce a maximal slowing of atrial rate. After washout during 30 minutes, adenosine deaminase is readministered to the bath which is allowed to equilibrate for 15 minutes. A 10^-5 M solution of the test compound in DMSO is then added to the bath which is left to incubate for 30 minutes. Any effect on the beating rate due to the test compound is noted before the dose response curve to 2-chloroadenosine is repeated. Compounds which are adenosine antagonists attenuate the 2-chloroadenosine response.
Test compounds are assessed by comparing dose response curves to 2-chloroadenosine alone with those obtained in the presence of the compound. […]

The target in assay [4] is T2, A2 Adenosine receptor (Rattus norvegicus, UniProt P30543).
T2 construct: membrane preparations derived from the rat phaeochromocytoma cell line PC 12; host or cells: PC 12 (rat phaeochromocytoma) membranes
Description: A2 Adenosine receptor affinity test ([3H]-NECA displacement, PC12 membranes). Format: binding. The note with it: rat PC12 cell membranes, 30° C., 90 minutes. The protocol: The separated cells are then suspended in hypotonic solution (distilled water), allowed to stand on ice for 30 minutes and are then carefully homogenized using a standard high-speed homogeniser with periodic ice-cooling to obtain a fine suspension. […] The mixture is then incubated at 37° C. After 20 minutes, the reaction is terminated by dilution with ice-cold buffer and transfer onto ice. The material obtained containing the cell membranes is recovered by centrifugation and washed by resuspension in buffer and recentrifugation. The pellet produced is then resuspended in ice-cold buffer using a hand-driven homogenizer. The resultant membrane suspension is frozen and stored under liquid nitrogen until required.
After incubation, the samples are rapidly filtered over glass-fibre mats and the filter mats are washed to remove non-receptor-bound radioligand. Receptor-bound radioligand entrapped on the filter mats is then determined by liquid scintillation counting. Filtration and washing are carried out using a conventional vacuum filtration cell harvester. The specific binding (defined as the difference between the total binding and the non-specific binding) in the presence of the particular test compound is determined and compared with the control value.

The structures appear in SMILES notation.

T2 sequence (P30543 whole entry): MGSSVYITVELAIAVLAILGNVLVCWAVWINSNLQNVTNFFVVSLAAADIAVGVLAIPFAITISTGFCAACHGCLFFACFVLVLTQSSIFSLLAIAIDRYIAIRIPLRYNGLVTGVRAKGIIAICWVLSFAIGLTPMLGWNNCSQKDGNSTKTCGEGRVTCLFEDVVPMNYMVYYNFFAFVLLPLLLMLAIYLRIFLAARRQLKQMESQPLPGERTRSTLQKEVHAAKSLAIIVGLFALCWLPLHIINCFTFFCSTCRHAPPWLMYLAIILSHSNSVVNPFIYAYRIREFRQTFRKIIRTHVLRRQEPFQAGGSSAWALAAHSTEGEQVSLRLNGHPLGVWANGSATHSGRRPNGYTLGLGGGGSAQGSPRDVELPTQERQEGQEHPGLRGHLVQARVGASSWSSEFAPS

As to `Cn1c(=O)c2[nH]cnc2n(C)c1=O` [1,3-dimethylxanthine], the “inhibition of vasodilatation during skeletal muscle contraction” value in assay [1] is listed as “significant inhibition”. For the same compound, the pA2 result in assay [2] is “about 5”.
Turning to `Nc1nc(NCCc2ccc(Oc3nc(N)n4nc(-c5ccco5)nc4n3)cc2)nc2nc(-c3ccco3)nn12` [Example 1, 7-amino-5-[4-(2-[7-amino-2-(2-furyl)-[1,2,4]triazolo[1,5-a][1,3,5]triazin-5-ylamino]ethyl)phenoxy]-2-(2-furyl)[1,2,4]triazolo[1,5-a][1,3,5]triazine], the Kb in assay [3] was 1000 nM. This compound showed an IC50 in assay [4] of roughly 0.794 nM.
